We go through two compounds from patent publication US20050015823A1, “Screening methods employing fish model assessment of vision” (priority 2001, published 2005).

For data set [1] the following is noted: mouse, in vivo; cited from earlier work.
For a further data set, the system named is fish. The data set is described as follows: treatment of model fish with test substances (drugs arrayed alone or in combination in the water/wells). It counts as in vivo. Particulars: monotherapy.

From the text for fish: Fish may be contacted with a test substance, it may be touched or rubbed on their surface or injected into them. A test substance may be added to water in which they are. […] There may be one or multiple fish in each well exposed to the test substance. The test substance may be added prior to the onset of the disease phenotype, concurrent with the onset of the disease phenotype, or subsequent to the onset of the disease phenotype. The same test substance may be added to different wells at different concentration. For example, test substance 1 may be added to well A1 at a concentration of 1 mM, to well A2 at a concentration of 100 uM, to well A3 at a concentration of 10 uM, to well A4 at a concentration of 1 uM and to well A5 at a concentration of 0.1 uM. Then test substance 2 to well B1 etc. The panel of test substances may be known drugs or new chemical entities.
Additionally, the test substances may be added in combination. For example, well A2 may contain test substance 1 ‘and 2, well A3 test substance 1 and 3, well B2 test substance 2 and 3. Alternatively, every well may contain test substance x, with individual wells containing a panel of additional test substances.
In other options, a population of fish in a petri dish or a tank may be employed and treated together, e.g. via addition of one or more or a combination of test substances in the water. […]

For the compound `C[C@H]1c2cccc(O)c2C(=O)C2=C(O)[C@]3(O)C(=O)C(C(N)=O)=C(O)[C@@H](N(C)C)[C@@H]3[C@@H](O)[C@@H]21` [Doxycycline, doxycycline], in data set [1], the toxicity result is on record as “no apparent toxicity”. As for `CN1C(=O)CN=C(c2ccccc2)c2cc(Cl)ccc21` [diazepam], the “concentration showing therapeutic effects” value with fish worked out at 35 µM.
